Tested on: TPM3-NTRK1-wt IC50 / primary target (e.g. CD74-ROS1-wt) IC50, Ba/F3 cells
Assay: Cell assay TRKA selectivity (TRKA potency divided by primary target potency)
Type: cell-based
Details: for TPM3-NTRK1-wt/CD74-ROS1-G2032R: TRKA selectivity ratio: TPM3-NTRK1-wt IC50 / CD74-ROS1-G2032R IC50, Ba/F3 cells; for TPM3-NTRK1-wt/CD74-ROS1-wt: TRKA selectivity ratio: TPM3-NTRK1-wt IC50 / CD74-ROS1-wt IC50, Ba/F3 cells; for TPM3-NTRK1-wt/EML4-ALK-L1196M-G1202R: TRKA selectivity ratio: TPM3-NTRK1-wt IC50 / EML4-ALK-L1196M-G1202R IC50, Ba/F3 cells; for TPM3-NTRK1-wt/EML4-ALK-wt: TRKA selectivity ratio: TPM3-NTRK1-wt IC50 / EML4-ALK-wt IC50, Ba/F3 cells
How it was run: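 IL-3-independent Ba/F3 lines stably expressing TPM3-TRKA or the primary fusion (e.g. CD74-ROS1 wt) were exposed to 3-fold compound dilutions for 72 h. Viability was read by CellTiter-Glo luminescence, with IC50 from four-parameter logistic fit. Selectivity is TPM3-NTRK1 IC50 divided by primary-target IC50, binned A (>30-fold) to D (<1).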

CCc1snc2c1-c1cnc(N)c(c1)O[C@H](C)c1cc(F)ccc1-c1nn(C)cc1C2 [Example 88, (19R)-3-ethyl-16-fluoro-10,19-dimethyl-20-oxa-4-thia-5,10,11,23-tetraazapentacyclo[19.3.1.0^2,^6.0^8,^12.0^13,^18]pentacosa-1(24),2,5,8,11,13,15,17,21(25),22-decaen-22-amine]
TPM3-NTRK1-wt/CD74-ROS1-G2032R: B (bin B for high selectivity, ratio>10-fold) | TPM3-NTRK1-wt/CD74-ROS1-wt: A (bin A for very high selectivity, ratio>30-fold) | TPM3-NTRK1-wt/EML4-ALK-L1196M-G1202R: C (bin C for moderate selectivity, ratio≥1) | TPM3-NTRK1-wt/EML4-ALK-wt: A (bin A for very high selectivity, ratio>30-fold)

C[C@H]1Oc2cc(cnc2N)-c2c(nn(C)c2CC2CC2)Cc2cn(C)nc2-c2ccc(F)cc21 [Example 179, (19R)-3-(cyclopropylmethyl)-16-fluoro-4,10,19-trimethyl-20-oxa-4,5,10,11,23-pentaazapentacyclo[19.3.1.0^2,^6.0^8,^12.0^13,^18]pentacosa-1(24),2,5,8,11,13,15,17,21(25),22-decaen-22-amine]
TPM3-NTRK1-wt/CD74-ROS1-G2032R: A (bin A for very high selectivity, ratio>30-fold) | TPM3-NTRK1-wt/CD74-ROS1-wt: A (bin A for very high selectivity, ratio>30-fold) | TPM3-NTRK1-wt/EML4-ALK-L1196M-G1202R: A (bin A for very high selectivity, ratio>30-fold) | TPM3-NTRK1-wt/EML4-ALK-wt: A (bin A for very high selectivity, ratio>30-fold)

C[C@H]1Oc2cc(cnc2N)-c2c(C(F)F)cnn2Cc2cc(F)cnc2-c2ccc(F)cc21 [Example 17, (20R)-3-(difluoromethyl)-10,17-difluoro-20-methyl-21-oxa-5,6,12,24-tetraazapentacyclo[20.3.1.0^2,^6.0^8,^13.0^14,^19]hexacosa-1(25),2,4,8(13),9,11,14,16,18,22(26),23-undecaen-23-amine]
TPM3-NTRK1-wt/CD74-ROS1-G2032R: B (bin B for high selectivity, ratio>10-fold) | TPM3-NTRK1-wt/CD74-ROS1-wt: A (bin A for very high selectivity, ratio>30-fold) | TPM3-NTRK1-wt/EML4-ALK-L1196M-G1202R: D (bin D for low selectivity, ratio<1) | TPM3-NTRK1-wt/EML4-ALK-wt: B (bin B for high selectivity, ratio>10-fold)

CCc1c(C#N)nn2c1-c1cnc(N)c(c1)O[C@H](C)c1cc(F)ccc1-c1nn(C)cc1C2 [Example 6, (19R)-22-amino-3-ethyl-16-fluoro-10,19-dimethyl-20-oxa-5,6,10,11,23-pentaazapentacyclo[19.3.1.0^2,^6.0^8,^12.0^13,^18]pentacosa-1(24),2,4,8,11,13,15,17,21(25),22-decaene-4-carbonitrile]
TPM3-NTRK1-wt/CD74-ROS1-G2032R: A (bin A for very high selectivity, ratio>30-fold) | TPM3-NTRK1-wt/CD74-ROS1-wt: A (bin A for very high selectivity, ratio>30-fold) | TPM3-NTRK1-wt/EML4-ALK-L1196M-G1202R: C (bin C for moderate selectivity, ratio≥1) | TPM3-NTRK1-wt/EML4-ALK-wt: A (bin A for very high selectivity, ratio>30-fold)

CCc1noc2c1-c1cnc(N)c(c1)O[C@H](C)c1cc(F)cc(F)c1-c1nn(C)cc1C2 [Example 90, (19R)-3-ethyl-14,16-difluoro-10,19-dimethyl-5,20-dioxa-4,10,11,23-tetraazapentacyclo[19.3.1.0^2,^6.0^8,^12.0^13,^18]pentacosa-1(24),2(6),3,8,11,13,15,17,21(25),22-decaen-22-amine]
TPM3-NTRK1-wt/CD74-ROS1-G2032R: A (bin A for very high selectivity, ratio>30-fold) | TPM3-NTRK1-wt/CD74-ROS1-wt: A (bin A for very high selectivity, ratio>30-fold) | TPM3-NTRK1-wt/EML4-ALK-L1196M-G1202R: C (bin C for moderate selectivity, ratio≥1) | TPM3-NTRK1-wt/EML4-ALK-wt: A (bin A for very high selectivity, ratio>30-fold)

C[C@H]1Oc2cc(cnc2N)-c2c(C3CCC3)noc2Cc2cn(C)nc2-c2ccc(F)cc21 [Example 26, (19R)-3-cyclobutyl-16-fluoro-10,19-dimethyl-5,20-dioxa-4,10,11,23-tetraazapentacyclo[19.3.1.0^2,^6.0^8,^12.0^13,^18]pentacosa-1(24),2(6),3,8,11,13,15,17,21(25),22-decaen-22-amine]
TPM3-NTRK1-wt/CD74-ROS1-G2032R: A (bin A for very high selectivity, ratio>30-fold) | TPM3-NTRK1-wt/CD74-ROS1-wt: A (bin A for very high selectivity, ratio>30-fold) | TPM3-NTRK1-wt/EML4-ALK-L1196M-G1202R: B (bin B for high selectivity, ratio>10-fold) | TPM3-NTRK1-wt/EML4-ALK-wt: A (bin A for very high selectivity, ratio>30-fold)

C[C@H]1Oc2cc(cnc2N)-c2c(C#N)nn(C)c2Cc2scnc2-c2ccc(F)cc21 [Example 94, (19R)-22-amino-16-fluoro-5,19-dimethyl-20-oxa-9-thia-4,5,11,23-tetraazapentacyclo[19.3.1.0^2,^6.0^8,^12.0^13,^18]pentacosa-1(24),2(6),3,8(12),10,13,15,17,21(25),22-decaene-3-carbonitrile]
TPM3-NTRK1-wt/CD74-ROS1-G2032R: A (bin A for very high selectivity, ratio>30-fold) | TPM3-NTRK1-wt/CD74-ROS1-wt: A (bin A for very high selectivity, ratio>30-fold) | TPM3-NTRK1-wt/EML4-ALK-L1196M-G1202R: A (bin A for very high selectivity, ratio>30-fold) | TPM3-NTRK1-wt/EML4-ALK-wt: A (bin A for very high selectivity, ratio>30-fold)

CCn1ncc2c1-c1ccc(F)cc1[C@@H](C)Oc1cc(cnc1N)-c1c(cnn1C)C2 [Example 4, (19R)-11-ethyl-16-fluoro-3,19-dimethyl-20-oxa-3,4,10,11,23-pentaazapentacyclo[19.3.1.0^2,^6.0^8,^12.0^13,^18]pentacosa-1(24),2(6),4,8(12),9,13,15,17,21(25),22-decaen-22-amine]
TPM3-NTRK1-wt/CD74-ROS1-G2032R: B (bin B for high selectivity, ratio>10-fold) | TPM3-NTRK1-wt/CD74-ROS1-wt: A (bin A for very high selectivity, ratio>30-fold) | TPM3-NTRK1-wt/EML4-ALK-L1196M-G1202R: D (bin D for low selectivity, ratio<1) | TPM3-NTRK1-wt/EML4-ALK-wt: C (bin C for moderate selectivity, ratio≥1)

C[C@H]1Oc2cc(cnc2N)-c2c(C#N)ncn2Cc2cc(F)cnc2-c2ccc(F)cc21 [Example 63, (20R)-23-amino-10,17-difluoro-20-methyl-21-oxa-4,6,12,24-tetraazapentacyclo[20.3.1.0^2,^6.0^8,^13.0^14,^19]hexacosa-1(25),2,4,8,10,12,14(19),15,17,22(26),23-undecaene-3-carbonitrile]
TPM3-NTRK1-wt/CD74-ROS1-G2032R: A (bin A for very high selectivity, ratio>30-fold) | TPM3-NTRK1-wt/CD74-ROS1-wt: A (bin A for very high selectivity, ratio>30-fold) | TPM3-NTRK1-wt/EML4-ALK-L1196M-G1202R: B (bin B for high selectivity, ratio>10-fold) | TPM3-NTRK1-wt/EML4-ALK-wt: A (bin A for very high selectivity, ratio>30-fold)

CC1Oc2cc(cnc2N)-c2c(n[nH]c2C#N)Cc2cnn(C)c2-c2ccc(F)cc21 (centres unmarked) [Example 168, 22-amino-16-fluoro-11,19-dimethyl-20-oxa-4,5,10,11,23-pentaazapentacyclo[19.3.1.0^2,^6.0^8,^12.0^13,^18]pentacosa-1(24),2,5,8(12),9,13,15,17,21(25),22-decaene-3-carbonitrile]
TPM3-NTRK1-wt/CD74-ROS1-G2032R: A (bin A for very high selectivity, ratio>30-fold) | TPM3-NTRK1-wt/CD74-ROS1-wt: A (bin A for very high selectivity, ratio>30-fold) | TPM3-NTRK1-wt/EML4-ALK-L1196M-G1202R: B (bin B for high selectivity, ratio>10-fold) | TPM3-NTRK1-wt/EML4-ALK-wt: A (bin A for very high selectivity, ratio>30-fold)

CCn1ncc2c1-c1cnc(N)c(c1)O[C@H](C)c1cc(F)ccc1-n1nc(OC)cc1C2 [Example 98, (19R)-3-ethyl-16-fluoro-10-methoxy-19-methyl-20-oxa-3,4,11,12,23-pentaazapentacyclo[19.3.1.0^2,^6.0^8,^12.0^13,^18]pentacosa-1(24),2(6),4,8,10,13,15,17,21(25),22-decaen-22-amine]
TPM3-NTRK1-wt/CD74-ROS1-G2032R: A (bin A for very high selectivity, ratio>30-fold) | TPM3-NTRK1-wt/CD74-ROS1-wt: A (bin A for very high selectivity, ratio>30-fold) | TPM3-NTRK1-wt/EML4-ALK-L1196M-G1202R: C (bin C for moderate selectivity, ratio≥1) | TPM3-NTRK1-wt/EML4-ALK-wt: B (bin B for high selectivity, ratio>10-fold)

C[C@H]1Oc2cc(cnc2N)-c2c(nnn2CC2CC2)Cc2cc(F)cnc2-c2ccc(F)cc21 [Example 106, (20R)-3-(cyclopropylmethyl)-10,17-difluoro-20-methyl-21-oxa-3,4,5,12,24-pentaazapentacyclo[20.3.1.0^2,^6.0^8,^13.0^14,^19]hexacosa-1(25),2(6),4,8(13),9,11,14,16,18,22(26),23-undecaen-23-amine]
TPM3-NTRK1-wt/CD74-ROS1-G2032R: A (bin A for very high selectivity, ratio>30-fold) | TPM3-NTRK1-wt/CD74-ROS1-wt: A (bin A for very high selectivity, ratio>30-fold) | TPM3-NTRK1-wt/EML4-ALK-L1196M-G1202R: B (bin B for high selectivity, ratio>10-fold) | TPM3-NTRK1-wt/EML4-ALK-wt: A (bin A for very high selectivity, ratio>30-fold)

CC1Oc2cc(cnc2N)-c2c(cnn2C)Cc2cnn(C)c2-c2ccc(F)cc21 (centres unmarked) [Example 2, 16-fluoro-3,11,19-trimethyl-20-oxa-3,4,10,11,23-pentaazapentacyclo[19.3.1.0^2,^6.0^8,^12.0^13,^18]pentacosa-1(24),2(6),4,8(12),9,13,15,17,21(25),22-decaen-22-amine]
TPM3-NTRK1-wt/CD74-ROS1-G2032R: B (bin B for high selectivity, ratio>10-fold) | TPM3-NTRK1-wt/CD74-ROS1-wt: A (bin A for very high selectivity, ratio>30-fold) | TPM3-NTRK1-wt/EML4-ALK-L1196M-G1202R: D (bin D for low selectivity, ratio<1) | TPM3-NTRK1-wt/EML4-ALK-wt: B (bin B for high selectivity, ratio>10-fold)

CCc1nn(C)c2c1-c1cnc(N)c(c1)OCc1cc(F)ccc1-c1nc(C)sc1C2 [Example 175, 3-ethyl-16-fluoro-5,10-dimethyl-20-oxa-9-thia-4,5,11,23-tetraazapentacyclo[19.3.1.0^2,^6.0^8,^12.0^13,^18]pentacosa-1(24),2(6),3,8(12),10,13,15,17,21(25),22-decaen-22-amine]
TPM3-NTRK1-wt/CD74-ROS1-G2032R: A (bin A for very high selectivity, ratio>30-fold) | TPM3-NTRK1-wt/CD74-ROS1-wt: A (bin A for very high selectivity, ratio>30-fold) | TPM3-NTRK1-wt/EML4-ALK-L1196M-G1202R: B (bin B for high selectivity, ratio>10-fold) | TPM3-NTRK1-wt/EML4-ALK-wt: A (bin A for very high selectivity, ratio>30-fold)

From patent publication US11667649B2, “Heteroaromatic macrocyclic ether chemotherapeutic agents” (Nuvalent, Inc., priority 2020, dated 2023)
